Experimental findings from US20240180914A1, “ORAL GEL COMPOSITION AND USE THEREOF” (DR. KURT WOLFF GMBH & CO. KG, priority 2021, published 2024) are described below.

Data set [1] relates to human epidermal HaCaT keratinocytes. The data set can be described thus: fluorometric CyQUANT cell proliferation study (DNA content). It is filed as cell-based. Particulars: 0.00005, 0.0005, 0.005% caffeine; 24, 48 or 72 hours; best effects after 72 hours. The protocol: To investigate the effect of caffeine on cell proliferation of human epidermal HaCaT keratinocytes, human HaCaT keratinocytes were subjected to a CyQUANT viability assay, wherein the following series of experiments were performed: • 1. P22 Experiment 1 (biological assay 1) • 2. P24 Experiment 2 (biological assay 2).
The trial durations were 24, 48 or 72 hours.
The study was carried out by fluorometric CyQUANT study, wherein the DNA content was measured, reflecting cell proliferation.

Data set [2] deals with VEGF. The data set can be described thus: Q-PCR, VEGF mRNA expression in HaCaT cell lysates. It is filed as cell-based, human. As to conditions: all caffeine concentrations; 24 hours; Experiments 1 and 2. As for the experimental part:
(§1) For Q-PCR: Determination of VEGF, HGF and EGF mRNA expression in cell lysates • 2. For ELISA: Determination of VEGF, HGF and EGF protein synthesis/secretion into the culture medium
(§2) The initial cell count was • 1. for Q-PCR: 140,000 cells/well in 1500 μl culture medium • 2. for ELISA: 140,000 cells/well in 1.500 μl culture medium.
(§3) The trial duration for • 1. Q-PCR was 24 hours (single treatment at time 0 h) • 2. ELISA was 48 hours (double treatment at time 0 h and 24 h without changing the medium).
(§4) The study was carried out • 1. for Q-PCR by determining VEGF mRNA expression in cell lysates • 2. for ELISA by determining VEGF protein synthesis/secretion in the culture medium.

The subject of data set [3] is VEGF. The data set can be described thus: ELISA, VEGF protein synthesis/secretion into the culture medium of HaCaT. It is filed as cell-based, human. As to conditions: 48 hours. As for the experimental part:
as §1, §2, §3, §4

Data set [4] concerns GM-CSF. Kind of data set: Q-PCR, experiments regarding GM-CSF in HaCaT. It is filed as cell-based, human. As to conditions: all tested caffeine concentrations; 24 h; Experiments 1 and 2. As for the experimental part: as §1, §2, §3
Data set [5] relates to GM-CSF. Kind of data set: ELISA, experiments regarding GM-CSF in HaCaT. Particulars: 48 h. It is filed as cell-based, human. The protocol: as §1, §2, §3
A general note: ELISA stands for enzyme-linked immunosorbent assay.

The subject of data set [6] is TGFβ1. Kind of data set: Q-PCR, TGFβ1 mRNA expression in HaCaT. The data set is classed as cell-based, human. As to conditions: all tested caffeine concentrations; 24 h; Experiments 1 and 2.
For a further data set, the system named is TGFβ2. Kind of data set: Q-PCR, TGFβ2 mRNA expression in HaCaT. The data set is classed as cell-based, human.
In data set [7] the test system is TGFβ1. The data set can be described thus: ELISA, TGFβ1-specific protein in HaCaT. It is filed as cell-based, human. As to conditions: 48 h; both experiments.
In data set [8] the test system is HGF. The data set can be described thus: Q-PCR, HGF mRNA expression in HaCaT cell lysates. The data set is classed as cell-based, human. As to conditions: both experiments. As for the experimental part: as §1, §2, §3
Data set [9] deals with HGF. Kind of data set: ELISA, HGF protein synthesis/secretion in HaCaT. It is filed as cell-based, human. As to conditions: both experiments. As for the experimental part: as §1, §2, §3
The subject of data set [10] is TNFα. Kind of data set: Q-PCR, TNFα-specific mRNA in HaCaT. The data set is classed as cell-based, human. As to conditions: both experiments.
Data set [11] has as its system TNFα. The data set can be described thus: ELISA, TNFα-specific protein in HaCaT. As to conditions: both experiments. The data set is classed as cell-based, human.
Data set [12] relates to human epidermal HaCaT keratinocytes. Kind of data set: colourimetric MTT viability study.
Procedure: To investigate the effect of caffeine on the biological functions of human epidermal HaCaT keratinocytes, cell experiments were performed on human epidermal HaCaT keratinocytes, wherein the following studies were carried out: • 1. P13-A biological assay 1 with two independent studies • 2. P13-B biological assay 2 with two independent studies.
The initial cell count was 5000 cells/well in 100 μl culture medium.
The culture medium was HaCaT medium (DMEM with the addition of 10% FBS, 1% penicillin-streptomycin, 0.5% fungizone).
The treatment groups were as follows: • 1. Control group (CTRL) • 2. 0.00005% caffeine • 3. 0.0001% caffeine • 4. 0.0005% caffeine • 5. 0.001% caffeine • 6. 0.005% caffeine
The trial durations were 24, 48 and 72 hours.
The study took the form of a colourimetric MTT study.
[13] abbreviates: 0.0005% caffeine, both experiments.

For `Cn1c(=O)c2c(ncn2C)n(C)c1=O` [caffeine], the “cell proliferation (DNA content)” value in data set [1] is on record as “appears to promote cell proliferation”. Further, the “mRNA expression of VEGF compared to the control group” value in the data set on VEGF [2] is reported as “appear to increase mRNA expression of VEGF”. Moreover, the “VEGF protein production/secretion compared to the control group” value with VEGF [3] (setting [13]) is reported as “increases VEGF protein production/secretion”; in the data set on VEGF [3] (0.005% caffeine, Experiment 2), “also showed an effect”. Moreover, in the data set on GM-CSF [4], the “mRNA expression of VEGF compared to the control group (under experiments regarding GM-CSF)” value is listed as “apparently increased the mRNA expression of VEGF”. The “VEGF protein production/secretion compared to the control group (under experiments regarding GM-CSF)” value with GM-CSF [5] (0j.005% caffeine, Experiment 2) was “also showed an effect”; with GM-CSF [5] (setting [13]), “increased VEGF protein production/secretion”. The “mRNA expression of TGFβ1” value with TGFβ1 [6] was “None of the tested caffeine concentrations changed the mRNA expression of TGFβ1”. For the same compound, in the data set on TGFβ2 (certain caffeine concentrations, 24 h, Experiment 2), the “mRNA expression of TGFβ2” value is “apparently increase mRNA expression of TGFβ2”. In addition, the “synthesis/production/secretion of TGFβ2 (overall conclusion)” value in the data set with TGFβ2 (despite contradictory results in the two Q-PCR experiments) is “most likely does not alter”. In addition, the “level of TGFβ1-specific protein” value in the data set with TGFβ1 [7] is reported as “below the detection limit”. For the same compound, in the data set with HGF [8], the “expression of HGF-specific mRNA” value is recorded as “below the detection limit”. For the same compound, in the data set with HGF [9], the “expression of HGF-specific protein” value is on record as “below the detection limit”. Further, in the data set with TNFα [10], the “expression of TNFα-specific mRNA” value is given as “below the detection limit”. In the data set on TNFα [11], the “expression of TNFα-specific protein” value is on record as “below the detection limit”. Also, the cytotoxicity result in data set [12] (0.00005-0.005% caffeine, 24, 48 and 72 hours) is listed as “none of the concentrations tested showed cytotoxicity”. For the same compound, in data set [12] (certain concentrations of caffeine), the “number of viable cells” value is “increased the number of viable cells”.
